Source: ChEMBL document CHEMBL5143689, “In silico, synthesis and anticancer evaluation of benzamide tryptamine derivatives as novel eEF2K inhibitors” (Bioorg Med Chem Lett, 2022)
The source made the active and inactive calls. The calls are words filed in the database; no cut-off is given here.

Experiments:
[1] = system: U-937; assay: Antiproliferative activity against human U-937 cells assessed as inhibition of cell viability measured after 48 hrs by MTT assay; type: functional, cell-based; conditions: U-937, 48 h
[2] = system: CCRF-CEM; assay: Antiproliferative activity against human CCRF-CEM cells assessed as inhibition of cell viability measured after 48 hrs by MTT assay; type: functional, cell-based
[3] = system: K562; assay: Antiproliferative activity against human K562 cells assessed as inhibition of cell viability measured after 48 hrs by MTT assay; type: functional, cell-based; conditions: K562, 48 h
[4] = target: T1, Eukaryotic elongation factor 2 kinase (Homo sapiens, UniProt O00418); assay: Inhibition of eEF2K (unknown origin)
T1 sequence (O00418 whole entry): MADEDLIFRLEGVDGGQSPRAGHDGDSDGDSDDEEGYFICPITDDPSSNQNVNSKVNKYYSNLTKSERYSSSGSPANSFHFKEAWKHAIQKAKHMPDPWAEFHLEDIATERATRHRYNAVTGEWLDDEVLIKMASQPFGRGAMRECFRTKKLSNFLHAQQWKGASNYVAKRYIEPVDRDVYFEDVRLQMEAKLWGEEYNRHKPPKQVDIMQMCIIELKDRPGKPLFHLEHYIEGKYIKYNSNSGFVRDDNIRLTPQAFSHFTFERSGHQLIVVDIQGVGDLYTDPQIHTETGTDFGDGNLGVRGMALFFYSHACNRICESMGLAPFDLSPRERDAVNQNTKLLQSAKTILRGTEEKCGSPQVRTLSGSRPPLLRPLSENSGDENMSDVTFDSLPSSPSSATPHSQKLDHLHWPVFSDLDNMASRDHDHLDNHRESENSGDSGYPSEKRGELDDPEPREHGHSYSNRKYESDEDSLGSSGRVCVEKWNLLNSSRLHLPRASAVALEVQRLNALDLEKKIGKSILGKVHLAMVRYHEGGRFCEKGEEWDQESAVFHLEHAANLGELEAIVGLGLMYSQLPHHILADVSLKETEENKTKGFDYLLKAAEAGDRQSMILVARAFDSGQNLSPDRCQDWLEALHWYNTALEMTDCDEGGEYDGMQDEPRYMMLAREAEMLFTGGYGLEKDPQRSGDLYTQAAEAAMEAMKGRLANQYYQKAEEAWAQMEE

[5] = system: CCRF-CEM; assay: Induction of apoptosis in human CCRF-CEM cells assessed as increase in cleaved caspase-8 level at 5 uM by Western blot analysis; type: functional, cell-based; conditions: time <= 48.0 hrs, TDE = time-dependent effect
[6] = target: T2, Eukaryotic elongation factor 2 kinase (Homo sapiens) (UniProt O00418); assay: Inhibition of eEF2K in human CCRF-CEM cells assessed as decrease in phosphorylation of MAPK at 5 uM measured up to 48 hrs by Western blot analysis; type: cell-based
T2 sequence (whole entry): T1 sequence (O00418 whole entry)

[7] = target: T2, Eukaryotic elongation factor 2 kinase (Homo sapiens); assay: Inhibition of eEF2K in human CCRF-CEM cells assessed as decrease in phosphorylation of eEF2 at 5 uM measured up to 48 hrs by Western blot analysis; type: cell-based
[8] = target: T2, Eukaryotic elongation factor 2 kinase (Homo sapiens); assay: Inhibition of eEF2K in human CCRF-CEM cells assessed as decrease in phosphorylation of mTOR up to 16 uM measured after 48 hrs by Western blot analysis; type: cell-based
[9] = system: CCRF-CEM; assay: Induction of cell cycle arrest in human CCRF-CEM cells assessed as accumulation at G0/G1 phase at 4 uM incubated for 48 hrs by PI/ RNaseA staining based flow cytometry analysis (reference value: 71.3%); type: functional
[10] = system: CCRF-CEM; assay: Induction of apoptosis in human CCRF-CEM cells assessed as increase in cleaved caspase-9 level at 5 uM by Western blot analysis; type: functional, cell-based; conditions: time <= 48.0 hrs, TDE = time-dependent effect
[11] = target: T2, Eukaryotic elongation factor 2 kinase (Homo sapiens); assay: Inhibition of eEF2K in human CCRF-CEM cells assessed as decrease in phosphorylation of mTOR at 5 uM measured up to 48 hrs by Western blot analysis; type: cell-based
[12] = target: T2, Eukaryotic elongation factor 2 kinase (Homo sapiens); assay: Inhibition of eEF2K in human CCRF-CEM cells assessed as decrease in phosphorylation of eEF2 at threonine 58 residue up to 16 uM measured after 48 hrs by Western blot analysis; type: cell-based
[13] = system: CCRF-CEM; assay: Induction of cell cycle arrest in human CCRF-CEM cells assessed as accumulation at G0/G1 phase at 8 uM incubated for 48 hrs by PI/ RNaseA staining based flow cytometry analysis (reference value: 71.3%); type: functional
[14] = target: T2, Eukaryotic elongation factor 2 kinase (Homo sapiens); assay: Inhibition of eEF2K in human CCRF-CEM cells assessed as decrease in phosphorylation of MAPK up to 16 uM measured after 48 hrs by Western blot analysis; type: cell-based
[15] = target: T2, Eukaryotic elongation factor 2 kinase (Homo sapiens); assay: Inhibition of eEF2K in human CCRF-CEM cells assessed as decrease in MAPK protein expression level up to 16 uM measured after 48 hrs by Western blot analysis; type: cell-based
[16] = target: T2, Eukaryotic elongation factor 2 kinase (Homo sapiens); assay: Inhibition of eEF2K in human CCRF-CEM cells assessed as decrease in phosphorylation of eEF2 at threonine 56 residue up to 16 uM measured after 48 hrs by Western blot analysis; type: cell-based
[17] = system: CCRF-CEM; assay: Induction of cell cycle arrest in human CCRF-CEM cells assessed as accumulation at G0/G1 phase at 2 uM incubated for 48 hrs by PI staining based flow cytometry analysis (reference value: 71.3%); type: functional
[18] = target: T2, Eukaryotic elongation factor 2 kinase (Homo sapiens); assay: Inhibition of eEF2K in human CCRF-CEM cells assessed as decrease in phosphorylation of Akt up to 16 uM measured after 48 hrs by Western blot analysis; type: cell-based
[19] = system: CCRF-CEM; assay: Induction of apoptosis in human CCRF-CEM cells assessed as late apoptotic cells up to 8 uM measured after 48 hrs by AnnexinV-FITC/PI staining based flow cytometry method; type: functional
[20] = system: CCRF-CEM; assay: Induction of apoptosis in human CCRF-CEM cells assessed as early apoptotic cells up to 8 uM measured after 48 hrs by AnnexinV-FITC/PI staining based flow cytometry method; type: functional
[21] = system: CCRF-CEM; assay: Induction of apoptosis in human CCRF-CEM cells assessed as increase in cleaved PARP level at 5 uM by Western blot analysis; type: functional, cell-based; conditions: time <= 48.0 hrs, TDE = time-dependent effect
[22] = target: T2, Eukaryotic elongation factor 2 kinase (Homo sapiens); assay: Inhibition of eEF2K in human CCRF-CEM cells assessed as decrease in phosphorylation of Akt at 5 uM measured up to 48 hrs by Western blot analysis; type: cell-based
[23] = system: CCRF-CEM; assay: Induction of apoptosis in human CCRF-CEM cells assessed as increase in cleaved caspase-3 level at 5 uM by Western blot analysis; type: functional, cell-based; conditions: time <= 48.0 hrs, TDE = time-dependent effect

| Compound | IC50 [1] [µM] | IC50 [2] [µM] | IC50 [3] [µM] | also measured |
| --- | --- | --- | --- | --- |
| CC(CNCCc1c[nH]c2ccccc12)C(=O)Nc1ccccc1 (racemic) | 11.4 | 3.9 | 7 |  |
| O=C(Nc1ccc(F)cc1F)N1CCCN(Cc2ccccc2)CC1 |  |  |  | IC50 [4]: 0.032 µM |
| COc1ccc2[nH]cc(CCNCCC(=O)Nc3ccccc3N)c2c1 | 11.2 | 4.71 | 16.5 |  |
| COc1ccc2[nH]cc(CCNCCC(=O)Nc3ccccc3)c2c1 | 15.2 | 9.79 | 7.83 |  |
| O=C1CC(c2ccccc2)c2cccc(N3CCCC3)c21 (stereo unspecified) |  |  |  | IC50 [4]: 0.23 µM |
| Nc1cc(F)ccc1NC(=O)CCNCCc1c[nH]c2ccccc12 | > 50 | 6.2 | > 50 |  |
| COc1ccc2[nH]cc(CCNCC(C)C(=O)Nc3ccccc3)c2c1 (racemic) | > 50 | 9.16 | 37.5 |  |
| O=S(=O)(c1ccc(Cl)cc1)C1(S(=O)(=O)c2ccc(Cl)cc2)CC1 |  |  |  | IC50 [4]: 0.069 µM |
| COc1ccc2[nH]cc(CCNCCC(=O)Nc3ccc(C)cc3[N+](=O)[O-])c2c1 | > 50 | 14.5 | 48.1 |  |
| Cc1ccc(C2=NC(C)(O)CC(C(C)C)[Se]2)cc1 (stereo unspecified) |  |  |  | IC50 [4]: 1.5 µM |
| CC(CNCCc1c[nH]c2ccccc12)C(=O)Nc1ccccc1N (racemic) | > 50 | 4.45 | 33.8 |  |
| O=C(CCNCCc1c[nH]c2ccc(Cl)cc12)Nc1ccccc1 | 2.12 | 1.63 | 3.54 | Activity [5]: Tde; inhibition [6]: Active; inhibition [7]: Active; inhibition [8]: Active; Activity [9]: 89.7%; Activity [10]: Tde; inhibition [11]: Active; inhibition [12]: Active; Activity [13]: 92.3%; inhibition [14]: Active; inhibition [15]: Active; inhibition [16]: Active; Activity [17]: 80.8%; inhibition [18]: Active; Activity [19]: 23.1%; Activity [20]: 0.021%; Activity [21]: Tde; inhibition [22]: Active; Activity [23]: Tde |
| COc1ccc2[nH]cc(CCNCC(C)C(=O)Nc3ccc(C)cc3N)c2c1 (racemic) | > 50 | > 50 | 39.2 |  |
| COc1ccc2[nH]cc(CCNCCC(=O)Nc3ccc(C)cc3N)c2c1 | > 50 | > 50 | > 50 |  |
| Cc1ccc(NC(=O)CCNCCc2c[nH]c3ccccc23)c(N)c1 | > 50 | > 50 | > 50 |  |
